According to PMC11504387, “Synthesis and Biological Activity Assessment of 2-Styrylbenzothiazoles as Potential Multifunctional Therapeutic Agents” (Antioxidants, 2024):

Tests used:
ORAC assay = assay type: biochemical; conditions: Trolox equivalents; mean ± SD
Procedure: The ORAC assay was performed based on the previously modified Hong procedure. The sodium salt of fluorescein (85 nM) was used as a target for free radical attack with 2,2′-azobis(2-amidinopropane) dichloride (AAPH) as a peroxyl radical generator in the final assay mixture (total volume of 0.2 mL). The test involves a calibration curve of Trolox (standard control) with different concentrations (40 to 240 μM). The compounds tested were first dissolved in DMSO:MeOH and then diluted in phosphate buffer solution pH 7.4. Fluorescence measurements were performed at 37 °C and recorded at 5-min intervals up to 30 min after the addition of AAPH. ORAC values were calculated as the difference in areas under the fluorescein quenching curves between the blank and the sample and were expressed as µmol Trolox equivalents (TE) per gram of dried sample.

Human recombinant 5-LO = target: T1, Human recombinant 5-LO (Homo sapiens, UniProt P09917); assay: 5-Lipoxygenase inhibition in a cell-free assay; assay type: biochemical; conditions: for remaining activity at 10 µM: % relative to vehicle (DMSO), read-out: 5-LO Residual Activity (Cell-Free, 10 µM); for IC50: isolated enzyme
T1 construct: made in house
T1 sequence (P09917 1-674): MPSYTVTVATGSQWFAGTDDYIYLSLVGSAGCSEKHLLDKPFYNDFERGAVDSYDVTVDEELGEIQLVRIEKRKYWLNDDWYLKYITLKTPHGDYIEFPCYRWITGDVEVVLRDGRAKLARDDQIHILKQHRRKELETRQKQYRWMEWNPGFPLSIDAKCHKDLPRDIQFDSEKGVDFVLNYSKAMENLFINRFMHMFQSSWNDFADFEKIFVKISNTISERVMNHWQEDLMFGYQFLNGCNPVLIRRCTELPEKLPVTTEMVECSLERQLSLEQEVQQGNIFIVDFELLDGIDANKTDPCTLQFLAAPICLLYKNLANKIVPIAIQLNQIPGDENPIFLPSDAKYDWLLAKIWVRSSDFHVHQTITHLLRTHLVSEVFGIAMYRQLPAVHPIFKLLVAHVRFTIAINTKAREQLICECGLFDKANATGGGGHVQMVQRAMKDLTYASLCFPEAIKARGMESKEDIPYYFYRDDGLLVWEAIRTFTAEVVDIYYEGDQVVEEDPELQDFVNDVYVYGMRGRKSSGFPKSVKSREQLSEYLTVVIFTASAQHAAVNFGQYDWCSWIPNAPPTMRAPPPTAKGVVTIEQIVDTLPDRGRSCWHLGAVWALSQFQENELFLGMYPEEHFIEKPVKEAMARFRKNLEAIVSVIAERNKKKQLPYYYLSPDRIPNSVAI
Procedure: Human recombinant 5-LO was expressed and isolated as described before, and immediately used for activity assays after isolation. The 5-LO (0.5 µg, in 1 mL PBS pH 7.4 containing 1 mM EDTA) was pre-incubated with the test compounds for 10 min at 4 °C and pre-warmed for 30 s at 37 °C. 5-LO product formation was initiated by sequential addition of 1 mM CaCl2 and 20 μM arachidonic acid. After 10 min at 37 °C, the reaction was terminated by addition of 1 mL ice-cold methanol containing 200 ng PGB1 as internal standard. Formed 5-LO products (trans-LTB4, epi-trans-LTB4, and 5-HETE) were extracted using Sep-Pak C18 35 cc Vac Cartridges and analysed by UPLC-MS/MS as previously described.

primary human monocytes = assay: Lipid mediator (LM) formation in primary human monocytes; assay type: cell-based; conditions: 10 µM; A23187 2.5 µM, 30 min
Excerpt: Monocytes and polymorphonuclear leukocytes (PMNL) were freshly isolated from human blood. Human blood and leukocyte concentrates were provided by the Institute for Transfusion Medicine of the University Hospital Jena (Thuringia, Germany). The protocols for experiments with human blood and blood cells were approved by the ethical commission of the Friedrich Schiller University of Jena. Following blood density centrifugation and separation of cell populations, peripheral blood mononuclear cells (PBMC) were left to adhere for 1 h to cell culture flasks (monocyte-enriched PBMC). Non-adherent cells were washed off from the adherent monocytes, before pre-incubating monocytes (5 × 10^6 cells/mL) with the test compounds for 10 min at 37 °C. LM formation was elicited with A23187 (2.5 µM) and CaCl2 (1 mM) over 30 min. The reaction was stopped with 1 mL of ice-cold methanol containing 10 µL of deuterium-labelled internal LM standards (200 nM d8-5S-HETE, d4-LTB4, d5-LXA4, d5-RvD2, d4-PGE2 and 10 µM d8-AA). LMs were extracted using Sep-Pak C18 35 cc Vac Cartridges (Waters, Milford, MA, USA) and analysed by UPLC-MS/MS as described by Pein et al..
The ability to modulate LM formation was screened in primary human monocytes expressing the enzymes required for PGE2, LTB4, and 12-HETE production (Figure 2A). Cells were pre-treated with the test compounds BZTst1–6 (10 µM) or the reference COX inhibitor diclofenac (1 µM) for 10 min prior to stimulation with the calcium ionophore A23187 (2.5 µM) for 30 min.

Row | Compound | ORAC (ORAC assay) | remaining activity at 10 µM (Human recombinant 5-LO) | IC50 (Human recombinant 5-LO) | 12-HETE formation (primary human monocytes) | melting point
1 | COc1ccc(/C=C/c2nc3ccccc3s2)cc1O [BZTst5, (E)-5-(2-(benzo[d]thiazol-2-yl)vinyl)-2-methoxyphenol] | <LOQ ^b | 34.8 ± 18.4% |  |  | 
2 | Oc1ccc(/C=C/c2nc3ccccc3s2)cc1 [BZTst2, (E)-4-(2-(benzo[d]thiazol-2-yl)vinyl)phenol] | 11,614.64 ± 1184.06 µmolTE/g | 47.3 ± 20.2% | 9260 nM |  | 
3 | Oc1ccc(/C=C/c2nc3ccccc3s2)cc1O [BZTst4, (E)-4-(2-(benzo[d]thiazol-2-yl)vinyl)benzene-1,2-diol] | <LOQ ^b | 6.85 ± 3.72% | 50 nM | highly significant inhibition | 
4 | COc1ccc(/C=C/c2nc3ccccc3s2)cc1 [BZTst3, (E)-2-(4-methoxystyryl)benzo[d]thiazole] | 1077.84 ± 98.52 µmolTE/g | 46.7 ± 28.5% |  |  | 144 to 148 °C
5 | C(=C\c1nc2ccccc2s1)/c1ccccc1 [BZTst1, (E)-2-styrylbenzo[d]thiazole] | <LOQ ^b | 72 ± 20.4% |  | weak but significant inhibition | 
6 | COc1cc(/C=C/c2nc3ccccc3s2)ccc1O [BZTst6, (E)-4-(2-(benzo[d]thiazol-2-yl)vinyl)-2-methoxyphenol] | 19,027.54 ± 46.67 µmolTE/g | 6.84 ± 3.38% | 330 nM |  | 
